Laboratory results taken from patent publication US9274101B2 (BIOLOG, Inc., priority 2001, dated 2016).
Converted amounts (≈) assume the structure as drawn. Blank lines part the entries; values can stand above or below the compound they belong to.

Legend:
[1] = tested on: Staphylococcus aureus (ATCC #29213); details: cited from earlier work
[2] = tested on: Staphylococcus aureus (ATCC #29213); test: MIC determination in MICROPLATE testing plates, saline vs GELRITE inoculant; type: cell-based; details: ATCC29213, 18 h, SF-P plates with resazurin, 35° C.
Description: All three antimicrobials were obtained from Sigma. […] Kanamycin and tetracycline were dissolved in sterile water.

[3] = tested on: Escherichia coli (ATCC#25922); details: cited from earlier work
[4] = tested on: E. coli MG1655; test: PM kinetic profiles of antimicrobials, S-O-R scoring and dendrogram; type: cell-based, Escherichia coli; details: 1× level of each antimicrobial, 7 PMs, 48 hours
[5] = tested on: HL-60 cells; test: Effect of 1 mM chloramphenicol on HL-60 energy utilization; type: cell-based, human; details: 1 mM chloramphenicol
Description: In this Example, methods for testing antimicrobial-induced modulation in growth of a cell are described. The antimicrobial selected for this Example is chloramphenicol. However, this application is not intended to be limited to the use of chloramphenicol, translation inhibitors or even antibiotics. HL-60 cells were cultured as described in Example 27.
After washing, HL-60 cells were resuspended in DME-R. An aliquot of the cell suspension was counted by trypan blue exclusion and the cell density was adjusted to 6.67×10^5[…]. Fifty μL of DME-R containing 3 mM chloramphenicol were added to each well of the appropriate number of half area, 96-well plates, followed by 25 μL of the appropriate dilution of each test energy source. Stocks of 133 mM of each test chemical were prepared in tissue culture grade water, sterile filtered, and dilutions were prepared in a master plate so that, upon dilution in a total volume of 150 μL, the final concentrations would be 0.033 to 20 mM. Negative control wells received 25 μL of tissue culture grade water. The cells were plated at a volume of 75 μL/well, giving a final cell density of 5×10^4/well. For each plate containing energy sources and cells, a second, control plate containing only energy sources was prepared. Plates were incubated at 5% CO2, 90-100% humidity, and 37° C. for 24 hours prior to addition of the MTS/MPMS colorimetric reagent (7.5 μL/well). The color formed in each well 24 hours after addition of the colorimetric reagent, was measured with a plate reader at 490 nm with a reference wavelength of 650 nm. OD values from the control plate were subtracted from the OD values obtained with cells prior to normalizing the data to % negative control.
Data shown in Table 25 are expressed as percent negative control without chloramphenicol. […] Chloramphenicol clearly has a different effect on the cells than citrate shown in Example 33.

[6] = tested on: HL-60 cells; test: Chloramphenicol IC50 for cells in complete medium; type: cell-based; details: Homo sapiens, read-out: IC50 concentration
[7] = tested on: vancomycin-intermediate S. aureus isolates (VISA); details: cited from earlier work
[8] = tested on: E. coli (MG1655); test: Sensitivity in ES1, ES2, ES3 MICROPLATE panels in the presence of vancomycin or sulfamethoxazole (synergy/antagonism); type: cell-based, Escherichia coli
[9] = tested on: A549 cells; test: Glucose utilization by A549 cells in response to insulin, cross-titration; type: cell-based; details: cross titration format (FIG. 12)
Description: Briefly, A549 cells were suspended in RPMI-salts+RPMI-vitamins+1× Pen/Strep without amino acids at 400,000 cells/mL and dispensed in 50 uL to wells containing glucose to achieve the indicated final glucose concentrations. Insulin was then added to achieve the indicated final insulin concentrations. The cells were adapted to glucose by maintaining the cells for 2 days at 37° C. under 5% CO2-95% air (pre-incubation phase), before a redox dye mix was added. Color development was measured after maintaining the cells for an additional 5 hr at 37° C. under 5% CO2-95% air (incubation phase).

MIC ([2]; diluent GELRITE (0.4%)): 1 to 2 µg/mL (≈ 2.86 to 5.72 µM) | MIC ([2]; diluent Saline): 1 to 4 µg/mL (≈ 2.86 to 11.4 µM)
Compound: CC1(C)S[C@@H]2[C@H](NC(=O)[C@H](N)c3ccccc3)C(=O)N2[C@H]1C(=O)O [Ampicillin, ampicillin]
MIC, NCCLS Expected Results [1]: 0.25 to 1 µg/mL | MIC, NCCLS Expected Result [3]: 2 to 8 µg/mL | position in dendrogram of PM response profiles (FIG. 9) [4]: cluster

IC50 [6]: 1000 µM
Compound: O=C(N[C@H](CO)[C@H](O)c1ccc([N+](=O)[O-])cc1)C(Cl)Cl [chloramphenicol]
position in dendrogram of PM response profiles (FIG. 9) [4]: cluster | effect on signal compared to untreated cells [5]: severe reduction in signal in almost all conditions

Compound: CN[C@H](CC(C)C)C(=O)N[C@H]1C(=O)N[C@@H](CC(N)=O)C(=O)N[C@H]2C(=O)N[C@H]3C(=O)N[C@H](C(=O)N[C@H](C(=O)O)c4cc(O)cc(O)c4-c4cc3ccc4O)[C@H](O)c3ccc(c(Cl)c3)Oc3cc2cc(c3O[C@@H]2O[C@H](CO)[C@@H](O)[C@H](O)[C@H]2O[C@H]2C[C@](C)(N)[C@H](O)[C@H](C)O2)Oc2ccc(cc2Cl)[C@H]1O [vancomycin]
minimum inhibitory concentration [MIC] [7]: 8 to 16 µg/mL | change of sensitivity to the panel compound [8]: transient increased sensitivity

Compound: insulin
effect on glucose depletion (dye reduction) [9]: insulin dependent depletion of a glucose substrate
